Data reported in article PMC12749811 (Nature Communications, 2025).

Experiments:
Cal09-WT virus [1] = format: cell-based, influenza A(H1N1)pdm09 virus A/California/07/2009
[2] = system: A/Fujian-Licheng/SWL1661/2023; format: cell-based, influenza A(H1N1)pdm09 virus
[3] = in vivo; cited from earlier work
Cal09-WT virus [4] = format: cell-based, influenza A(H1N1)pdm09 virus A/California/07/2009; remark: listed apart in the source
[5] = system: A/Sichuan-Shunqing/SWL11211/2023; format: cell-based, influenza A(H1N1)pdm09 virus

With `O=C1c2c(O)c(=O)ccn2N([C@@H]2c3ccccc3SCc3c2ccc(F)c3F)[C@@H]2COCCN12` [baloxavir] the “sensitivity in plaque-reduction assay” value (Cal09-WT virus [1]) was “remained high sensitivity”.

In the case of `CCOC(=O)C1=C[C@@H](OC(CC)CC)[C@H](NC(C)=O)[C@@H](N)C1` [oseltamivir], the “oseltamivir sensitivity” value [2] is given as “remained oseltamivir-sensitive”, the average plasma concentration [3] is given as 0.33 µM and the “concentration at which plaque diameters were inhibited” value (Cal09-WT virus [1]) is given as 0.01 µM. The “concentration at which virus replication was significantly inhibited” value (Cal09-WT virus [4]) was 0.1 µM and the “oseltamivir sensitivity” value [5] was “remained oseltamivir-sensitive”.

In the case of `CCC(CC)[C@H](NC(C)=O)[C@@H]1[C@H](O)[C@@H](C(=O)O)C[C@H]1N=C(N)N` [peramivir], the “sensitivity in plaque-reduction assay” value (Cal09-WT virus [1]) is reported as “remained fully sensitive”.

In the case of `CC(=O)N[C@H]1[C@H]([C@H](O)[C@H](O)CO)OC(C(=O)O)=C[C@@H]1N=C(N)N` [zanamivir], the “sensitivity in plaque-reduction assay” value (Cal09-WT virus [1]) is reported as “remained fully sensitive”.
